Laboratory results from US11739385B2, “Discovery of a somatic mutation in MYD88 gene in lymphoplasmacytic lymphoma” (Dana-Farber Cancer Institute, Inc., priority 2011, dated 2023).
Like-named read-outs stand apart in the source and are kept apart here.

Columns and labels:
[1] = system: NF-κB signaling; details: L265P expressing ABC DLBCL cell lines; cited from earlier work
[2] = system: NF-κB signaling; experiment: NF-κB signaling in BCWM.1 and MWCL-1 WM cells; assay type: cell-based; details: BCWM.1 and MWCL-1 WM cells which possess the MYD88 L265P mutation
[3] = system: MYD88 L265P expressing WM cells; experiment: Apoptosis analysis by Annexin V and PI staining; assay type: cell-based; details: BCWM.1 and MWCL-1 WM cells which possess the MYD88 L265P mutation
Description: Western blot analysis was performed using total and phospho-specific antibodies in MYD88 L265P expressing WM cells, BCWM.1 and MCWL-1 following MYD88 knockdown by lentiviral transduction, and/or use of MYD88 or IRAK signal inhibitors. […] Annexin V/PI staining was used to assess cell survival, and synergism assessed with CalcuSyn software.

## O=C(Nc1nc2ccccc2n1CCN1CCOCC1)c1cccc([N+](=O)[O-])c1 [IRAK1/4 inhibitor, N-(2-Morpholinylethyl)-2-(3-nitrobenzoylamido)-benzimidazole]
[1]
  NF-κB signaling: loss of NF-κB signaling
[2]
  NF-κB signaling: loss of NF-κB signaling
[3]
  apoptosis: enhanced apoptosis
